Assay results taken from US20150174144A1, “TETRACYCLINE COMPOUNDS FOR TREATING NEURODEGENERATIVE DISORDERS” (PARATEK PHARMACEUTICALS, INC., priority 2012, published 2015).
Values after ≈ are worked out from the molar mass of the structure shown. Values joined by “and” are separate entries in the source; they are usually repeats but may differ in a detail not shown here. Equal entries are not always repeated. Where two headings read alike, the source gives them in different places. Marks after values point to notes of the source that are not given here.

Experiments:
[1] = Peroxynitrite-carbonate radical scavenging assay (DHR probe)
Experimental: Inflammatory conditions are characterized by increasing concentrations of reactive oxygen species. In this study, the ability of Compound 1 to specifically scavenge peroxynitrite-carbonate radicals was determined.
To the first column of a 96-well PCR plate (0.2 mL volume) was added 160 μL of TCWS. One well of the first column would equal one IC50 determination. Typically, test compounds were assayed in duplicate, i.e. two wells of column 1 were filled with each TCWS. To the remaining wells in columns 2-11 was added 80 μL of DWS. Using a multichannel pipettor, column 1 was serially diluted in 2-fold dilutions by removing 80 μL from column 1 and transferring with mixing to column 2. Column 2 was then diluted to column 3 and so on until column 11 where 80 μL of the diluted mixture was removed and discarded. At least 2 wells of row 12 were designated as the 0 test compound control to which 80 μL of DWS was added. One well of row 12 per test compound was designated as the background control to which 80 μL of the TCWS was added.
The plate was covered and incubated for 5 minutes at 37° C. upon which the reaction was initiated by addition of 20 μL of Sin-1 to columns 1-11 using a multichannel pipettor with mixing. The reaction was initiated similarly to the 0 test compound wells of column 12. To the background control wells was added 20 μL of PC buffer. The plate was incubated at 37° C. for 8 minutes (the reaction is linear for 10 minutes) and quenched by addition of 50 μL of AA to all wells with mixing. The plate was placed on ice for 5 minutes. Quenched assay mixtures were stable at room temperature for at least 24 hours.
Each reaction mixture (20 μL) was analyzed for rhodamine 123 product by HPLC using a Phenomenex Luna C18(2) column, 3 um, 4.6×50 mm using an A buffer of water+0.1% TFA and a B buffer of acetonitrile+0.1% TFA and the following gradient method: […]
The absorbance at 280 nm was also recorded to ensure no co-elution of test compound peaks.
Initial examination of the background control samples at the highest test compound concentration were performed to ensure no co-elution of test compound peaks with the product rhodamine 123 at 4 minutes. If co-elution was observed, the compound was not tested until an appropriate HPLC method was developed to separate the product and test compound peaks. The rhodamine 123 AUC was then determined for each test compound concentration and the percent inhibition of rhodamine 123 fluorescence was then determined by the following equation:
% Inhibition=[(AUCo−AUCx)/AUCo]*100
Where AUCo is the AUC of the rhodamine 123 peak at 0 test compound concentration and AUCX is the AUC of the rhodamine 123 peak at each test compound concentration=x.
The standard error of the curve fit for the IC50 was also determined along with the Hill slope. The IC50 determined for uric acid was divided by the IC50 determined for each test compound to generate Uric Acid Equivalents, a measure of the peroxynitrite-carbonate radical scavenging ability relative to uric acid.
Uric Acid Equivalents=[…]

[2] = tested on: E. coli; experiment: Antibacterial activity, E. coli MIC; format: cell-based; details: Escherichia coli; Table 8
[3] = Genotoxicity; details: pre-clinical safety studies
[4] = tested on: cuprizone-induced demyelination; experiment: Mouse model of cuprizone-induced demyelination; format: in vivo, C57BL/6 female mice
Experimental: Compound 1 was tested in the mouse model of cuprizone-induced demyelination to determine the protective effects of Compound 1. The general protocol for cuprizone model demyelination is as follows:
C57BL/6 female mice at 7-8 weeks old were fed a cuprizone diet (7012, 0.2% cuprizone mixed in standard pellet rodent chow purchased from Harlan Teklad, Indianapolis, Ind., USA) for 5 weeks. The cuprizone food was changed every two days and given ad libitum along with water. An additional group of mice was fed normal chow for 5 weeks to serve as a no cuprizone control.
Animals were dosed intraperitoneally (i.p.) once daily based on body weight with Compound 1 (25 mg/kg, 10 mL/kg in saline), minocycline positive control (25 mg/kg, 10 mL/kg in saline) or saline sham starting on the day of cuprizone diet initiation (day 0) and continuing until day of harvest.
At 3, 4, and 5 weeks of cuprizone feeding, ten mice from each group were euthanized by CO2 asphyxiation and decapitation and the brains were harvested and fixed in 10% buffered neutral formalin.
Postfixed brains were paraffin embedded and 8-12 μm serial sections of the brain between the septostriatal and rostral diencephalon were prepared for luxol fast blue periodic acid-Schiff base (LFB-PAS) staining (demyelination). Both medial and lateral demyelination of the corpus callosum was determined.
Demyelination scores for the medial corpus callosum ranged from 0 to 4 (0=fully myelinated, 1=<⅓ demyelination in the center of the medial corpus callosum, 2=<⅔ demyelination in the center of the corpus callosum, 3=no myelin in the center of corpus callosum and 4=demyelination extending to the arch of the medial corpus callosum). Demyelination in the lateral corpus callosum was scored on weeks 4 and 5 and ranged from 0 to 3 (0=normal myelination and 3=complete demyelination). Demyelination was scored 2-3 times for at least 2 brain sections.
Axon loss in the medial corpus callosum was determined on additional serial sections of brain using Bielschowsky silver staining. Axon loss in the medial corpus callosum was scored from 0-4 (0=normal number of axons to 4=complete axon loss) at 3, 4 and 5 weeks. Slides were scored by two technicians who were blinded to the treatment groups.

[5] = tested on: LPS-induced TNFα production by RAW 264.7 macrophages; experiment: TNFα production assay, LPS-activated RAW 264.7 macrophages; format: cell-based; details: Mus musculus, RAW264.7
Experimental: Compound 1 was tested to determine specific anti-inflammatory characteristics. In vitro assays to assess the inhibition of substrate cleavage by matrix metalloproteinase 9 (MMP-9) and the inhibition of TNFα production by lipopolysaccharide (LPS)-activated macrophages were performed. MMP-9 activity was determined by fluorescence after incubation of recombinant MMP-9 with fluorescein-conjugated DQ gelatin for 90 min. TNFα production was determined by incubation of 10 ng/ml LPS with RAW264.7 macrophage cells for 24 h, followed by quantitation of TNFα in culture supernatant by ELISA.
The RAW 264.7 mouse macrophage cell line was grown to confluence in DMEM medium containing 10% fetal bovine serum (FBS). Cells were harvested into single-cell suspensions, seeded into 96-well plates at 1-2×10^5 cells/well (200 μL volume) and incubated (5% CO2, 37° C.) overnight. Compounds were added to the cells at final concentrations ranging from 50 to 1 μM and pre-incubated for 30 min. Lipopolysaccharide (LPS) was added to the cells at a final concentration of 10 ng/ml. After incubation for 20 hr, culture supernatants were harvested and transferred to a new 96-well plate. Levels of LPS-induced TNFα in the supernatants were quantified by ELISA (R & D Systems) with supernatants from unstimulated cells serving as a negative control.

[6] = Lateral Corpus Callosum, Week 4, 25 mg/kg/d i.p.
[7] = Lateral Corpus Callosum, Week 5, 25 mg/kg/d i.p.
[8] = Medial Corpus Callosum, Week 3, 25 mg/kg/d i.p.
[9] = Medial Corpus Callosum, Week 4, 25 mg/kg/d i.p.
[10] = Medial Corpus Callosum, Week 5, 25 mg/kg/d i.p.
[11] = 10 ng/ml LPS, 20 hr, read-out: TNFα Production (RAW264.7) IC50
[12] = Table 4, unit inferred, read-out: TNFα production (RAW264.7)

SMILES: CCc1cc(N(C)C)c2c(c1O)C(=O)C1=C(O)[C@]3(O)C(=O)C(C(N)=O)=C(O)[C@@H](N(C)C)[C@@H]3C[C@@H]1C2 [Compound 1]
- IC50 ([1]; Sin-1, 37° C., 8 minutes, read-out: IC50, inhibition of oxidation of DHR probe (peroxynitrite-carbonate scavenging)): 11 µM
- Uric Acid Equivalents ([1]; relative to uric acid): 1.13
- MIC [2]: > 64 µg/mL
- Effects in genotoxicity [3]: no significant effects
- % Inhibition Demyelination [4, 6]: 62%
- % Inhibition Demyelination [4, 7]: 29%
- % Inhibition Axon Loss [4, 8]: 62% and 66* %
- % Inhibition Demyelination [4, 8]: 70%
- % Inhibition Axon Loss [4, 9]: 41%
- % Inhibition Demyelination [4, 9]: 13%
- % Inhibition Axon Loss [4, 10]: 3%
- % Inhibition Demyelination [4, 10]: −11%
- IC50 [5, 11]: 10.9 ± 1.6 µM
- IC50 [5, 12]: 10.9 ± 1.6 µM

SMILES: CN(C)c1ccc(O)c2c1C[C@H]1C[C@H]3[C@H](N(C)C)C(O)=C(C(N)=O)C(=O)[C@@]3(O)C(O)=C1C2=O [Minocycline, minocycline, reference compound]
- MIC [2]: 1 µg/mL (≈ 2.19 µM)
- % Inhibition Demyelination [4, 6]: 63* %
- % Inhibition Demyelination ([4]; Lateral Corpus Callosum, Week 4, 25 mg/kg/d i.p., listed as minocycline): 63%
- % Inhibition Demyelination [4, 7]: 25%
- % Inhibition Axon Loss [4, 8]: 29%
- % Inhibition Demyelination [4, 8]: 31%
- % Inhibition Axon Loss [4, 9]: 30%
- % Inhibition Demyelination [4, 9]: 17%
- % Inhibition Axon Loss [4, 10]: −10%
- % Inhibition Demyelination [4, 10]: 12%
- IC50 [5, 11]: 47 µM
- IC50 [5, 12]: 47 µM
